# What was measured:
# Nakaseomyces glabratus [1] = assay: In vitro concentration to inhibit Candida glabrata CgCDR2 transporter gene over-expressed in Saccharomyces cerevisiae strain Y218; type: functional, organism-based
# Nakaseomyces glabratus [2] = assay: In vitro minimum potentiation concentration required to achieve an 8-fold reduction in fluconazole MIC against Candida glabrata strain YEM19 (overexpressing both […]); type: functional
# Nakaseomyces glabratus [3] = assay: In vitro concentration to inhibit Candida glabrata CgCDR1 transporter gene over-expressed in Saccharomyces cerevisiae strain Y170; type: functional, organism-based
# Candida albicans [4] = assay: In vitro concentration to inhibit Candida albicans CDR1 transporter gene over-expressed in Saccharomyces cerevisiae strain YEM172; type: functional, organism-based
# Candida albicans [5] = assay: In vitro concentration to inhibit Candida albicans CDR2 transporter gene over-expressed in Saccharomyces cerevisiae strain YEM171; type: functional, organism-based
# Candida albicans [6] = assay: In vitro minimum potentiation concentration required to achieve an 8-fold reduction in fluconazole MIC against Candida albicans strain YEM15 (overexpressing both CDR1 and CDR2); type: functional
# Saccharomyces cerevisiae [7] = assay: In vitro concentration required to inhibit 80% growth of Saccharomyces cerevisiae strain YEM139 (PDR5 deleted) after 48 h; type: functional
# Saccharomyces cerevisiae [8] = assay: In vitro concentration required to inhibit 80% growth of Saccharomyces cerevisiae strain YEM171 (CDR2 over-expressed) after 48 h; type: functional
# Saccharomyces cerevisiae [9] = assay: In vitro concentration required to inhibit 80% growth of Saccharomyces cerevisiae strain Y218 (CgCDR2 over-expressed) after 48 h; type: functional
# Saccharomyces cerevisiae [10] = assay: In vitro concentration required to inhibit 80% growth of Saccharomyces cerevisiae strain YEM172 (CDR1 over-expressed) after 48 h; type: functional
# Saccharomyces cerevisiae [11] = assay: In vitro concentration required to inhibit 80% growth of Saccharomyces cerevisiae strain Y170 (CgCDR1 over-expressed) after 48 h; type: functional
SMILES,IC50 (Nakaseomyces glabratus [1]),MPC8 (Nakaseomyces glabratus [2]),IC50 (Nakaseomyces glabratus [3]),IC50 (Candida albicans [4]),IC50 (Candida albicans [5]),MPC8 (Candida albicans [6]),MIC (Saccharomyces cerevisiae [7]),MIC (Saccharomyces cerevisiae [8]),MIC (Saccharomyces cerevisiae [9]),MIC (Saccharomyces cerevisiae [10]),MIC (Saccharomyces cerevisiae [11])
COc1ccc(N(Cc2nc3ccccc3c(=O)n2N2CCN(C)CC2)C(=O)Nc2cccc(Cl)c2)c(OC)c1,32 µg/mL,16 µg/mL,> 32 µg/mL,32 µg/mL,> 32 µg/mL,16 µg/mL,,,,,
COc1ccc(N(C(=O)Nc2cccc(Cl)c2)[C@H](C)c2nc3ccccc3c(=O)n2N2CCN(C)CC2)c(OC)c1,> 32 µg/mL,>32 µg/mL,> 32 µg/mL,> 32 µg/mL,> 32 µg/mL,>32 µg/mL,,,,,
COc1ccc(N(C(=O)Nc2cccc(Cl)c2)[C@@H](C)c2nc3ccccc3c(=O)n2N2CCN(C)CC2)c(OC)c1,> 32 µg/mL,1 µg/mL,4 µg/mL,2 µg/mL,> 32 µg/mL,1 µg/mL,,,,,
COc1ccc(N(C(=O)Nc2cccc(Cl)c2)C(C)c2nc3ccccc3c(=O)n2N2CCN(C)CC2)c(OC)c1 (configuration not stated),> 16 µg/mL,4 µg/mL,8 µg/mL,4 µg/mL,> 16 µg/mL,1 µg/mL,,,,,
COc1ccc(N(C(=O)Nc2cccc(Cl)c2)C(C)(C)c2nc3ccccc3c(=O)n2N2CCN(C)CC2)c(OC)c1,> 32 µg/mL,>32 µg/mL,> 32 µg/mL,> 32 µg/mL,> 32 µg/mL,>32 µg/mL,,,,,
OC(Cn1cncn1)(Cn1cncn1)c1ccc(F)cc1F [FLUCONAZOLE],,,,,,,0.5 µg/mL,8 µg/mL,2 µg/mL,128 µg/mL,128 µg/mL
CCOC(=O)CCn1c(C(C)N(C(=O)Nc2cccc(Cl)c2)c2ccc(OC)cc2OC)nc2ccccc2c1=O (configuration not stated),> 32 µg/mL,>32 µg/mL,> 32 µg/mL,0.5 µg/mL,> 32 µg/mL,1 µg/mL,,,,,
COc1ccc(N(C(=O)Nc2cccc(Cl)c2)C(C)c2nc3ccccc3c(=O)n2Cc2ccccc2)c(OC)c1 (configuration not stated),> 32 µg/mL,>32 µg/mL,> 32 µg/mL,0.12 µg/mL,> 32 µg/mL,0.5 µg/mL,,,,,
